Data reported in patent US12162895B2, “DNA polymerase theta inhibitor for treatment of cancer” (Breakpoint Therapeutics GmbH, priority 2023, dated 2024).

Biological target: T1, Polθ (Homo sapiens, UniProt O75417)
T1 construct: a truncated Pole protein (Pole-Hel containing the helicase domain (67-894))
Assay: Polθ ATPase assay (Biological Assay 1, ADP-Glo luminescence)
Assay type: biochemical
Conditions: truncated Polθ protein containing the helicase domain (67-894), ssDNA oligo, ATP, in vitro
Procedure: The Pole ATPase assay was used to evaluate inhibitors of Pole ATPase activity, in vitro. Experiments were performed using a truncated Pole protein (Pole-Hel containing the helicase domain (67-894), ATP and a DNA single strand Oligo (5′-CTGTCCTGCATGATG-3′) in the Pole assay buffer (20 mM Tris-HCl (pH 8.8), MgCl2 5 mM, tween20 0.01%, NP40 0.01%, BSA 0.01%, DTT 1 mM). 2 μL of assay buffer containing Pole-Hel protein (0.5 nM) and DNA substrate (500 nM) was transferred into assay ready plates, containing 0.04 μL of compounds diluted in DMSO. After a 30 minutes incubation at 23° C. in the dark, the reaction was triggered by adding 2 μL of ATP (60 μM), in assay buffer. After 60 minutes at 23° C., 4 μl of ADP-Glo™ Reagent (Glo 1) was added followed by 40 minutes of incubation, then 8 μl of ADP-Glo™ kinase Detection Reagent (Glo 2) followed by 60 minutes of incubation at 23° C. Luminescence was then measured using Tecan F200 infinite plate reader. Raw data were analysed using GeneData to generate IC50 values.
The Pole ATPase assay described in Biological Assay 1 above was used to evaluate inhibitors of Pole ATPase activity for the compounds described in the Experimental Part B above, in vitro.

T1 sequence (O75417 67-894): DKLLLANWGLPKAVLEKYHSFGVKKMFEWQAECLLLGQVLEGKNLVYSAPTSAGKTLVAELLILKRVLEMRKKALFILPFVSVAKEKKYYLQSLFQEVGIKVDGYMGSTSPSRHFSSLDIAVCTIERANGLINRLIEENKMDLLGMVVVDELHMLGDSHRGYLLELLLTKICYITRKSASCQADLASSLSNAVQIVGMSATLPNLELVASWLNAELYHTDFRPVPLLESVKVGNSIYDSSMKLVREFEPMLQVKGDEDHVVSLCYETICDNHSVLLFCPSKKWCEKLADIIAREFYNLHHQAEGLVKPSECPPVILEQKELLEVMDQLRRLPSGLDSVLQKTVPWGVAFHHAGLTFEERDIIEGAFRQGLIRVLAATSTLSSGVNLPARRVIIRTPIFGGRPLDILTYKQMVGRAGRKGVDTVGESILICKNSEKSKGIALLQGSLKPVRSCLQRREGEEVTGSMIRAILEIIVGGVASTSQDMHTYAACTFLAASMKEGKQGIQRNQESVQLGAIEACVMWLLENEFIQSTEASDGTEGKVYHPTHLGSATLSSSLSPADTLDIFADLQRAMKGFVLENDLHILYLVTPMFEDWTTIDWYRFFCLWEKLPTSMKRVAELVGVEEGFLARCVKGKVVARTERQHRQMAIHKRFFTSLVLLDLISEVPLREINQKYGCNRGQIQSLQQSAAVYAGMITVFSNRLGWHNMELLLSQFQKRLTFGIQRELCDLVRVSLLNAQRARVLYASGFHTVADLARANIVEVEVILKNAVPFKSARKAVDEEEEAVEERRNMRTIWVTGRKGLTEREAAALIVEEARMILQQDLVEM

5′-methoxy-2′,6-dimethyl-N-[5-(morpholin-4-yl)-[1,3]thiazolo[5,4-d]pyrimidin-2-yl]-[4,4′-bipyridine]-3-carboxamide [Example 92]
IC50: < 100 nM
